What all share (format): in vivo
Test [1] has as its system S. Typhimurium ΔspiA. Nature of the test: S. Typhimurium ΔspiA oral infection of mice: pathogen loads, cecal histology, survival. As for the experimental part:
(§1) Reconstitution of GF mice with cecal contents and defined bacteria. Cecal contents from single neonatal and 7-week old SPF mice were diluted into 50 ml (per one adult mouse) or 5 ml (per one 4, 12, 16-day old mouse) of PBS, and passed through a 70 μm cell strainer to eliminate clumps and debris under sterile conditions) under an atmosphere of 5% H2, 5% CO2 and 90% N2 in an anaerobic growth chamber (Coy Manufacturing, Grass Lake, MI). Then 200 μl of the suspension was processed by intragastric gavage into each of the recipient GF mice. Bacteroides species were anaerobically grown at 37° C. overnight in pre-reduced chopped-meat broth (Anaerobe systems, Morgan Hill, CA). E. coli were grown aerobically overnight in LB broth with shaking.
(§2) Enteric pathogen infection. Kanamycin (Km)-resistant and Streptomycin (Sm)-resistant Salmonella enterica serovar Typhimurium (S. Typhimurium) SL1344 ΔspiA was a gift from Dr. Denise Monack, Stanford University. Kanamycin (Km)-resistant wild-type Citrobacter rodentium strain DBS120 (pCRP1::Tn5) was a gift from Dr. David Schauer, Massachusetts Institute of Technology. […] Mice were infected by oral gavage with 0.2 ml of PBS containing approximately 5×10^7 CFU of S. Typhimurium, and 1×10^9 CFU of C. rodentium. […] Mouse survival was monitored for 7 days after infection. […]

Test [2] deals with C. rodentium. Kind of test: C. rodentium oral infection of mice: pathogen loads in feces. To be noted: adult mice, vancomycin in drinking water; day 25-30 after infection; FIG. 2B. As for the experimental part: as §1, §2
Test [3] relates to fecal microbiota. Kind of test: 16S rRNA gene analysis of the fecal microbiota. The following applies: adult mice; FIG. 7, FIG. 2D. As for the experimental part:
Fecal pellet DNA extraction and 16S rRNA gene sequencing and sequence curation. Fecal samples were freshly collected and DNA was extracted using the E.Z.N.A® stool DNA kit. Amplicons were generated of the V4 region within the 16S rRNA gene and the fragments were sequenced using an Illumina MiSeq (14). These sequences were curated using Mothur (v.1.35) (14, 15) and sequences were binned into operational taxonomic units (OTUs). Taxonomic assignments were determined using a naive Bayesian classifier with the Ribosomal Database Project (RDP) training set (version 10) requiring an 80% bootstrap confidence score (16). Treatment with vancomycin and SCFAs and special diet. Vancomycin (250 mg/L) was administered in the mouse drinking water for 7 days before S. Typhimurium and C. rodentium infection and the treatment was kept during the length of the experiment.

Test [4] has as its system Clostridium cluster IV and XIVa. Nature of the test: Intestinal colonization of Clostridia in GF mice, qPCR of fecal DNA. The following applies: metabolite in drinking water of GF mice gavaged with Clostridia consortium; FIG. 4D, 9C. (Quantitative PCR measures a nucleic acid by following its amplification.)

`CN[C@H](CC(C)C)C(=O)N[C@H]1C(=O)N[C@@H](CC(N)=O)C(=O)N[C@H]2C(=O)N[C@H]3C(=O)N[C@H](C(=O)N[C@H](C(=O)O)c4cc(O)cc(O)c4-c4cc3ccc4O)[C@H](O)c3ccc(c(Cl)c3)Oc3cc2cc(c3O[C@@H]2O[C@H](CO)[C@@H](O)[C@H](O)[C@H]2O[C@H]2C[C@](C)(N)[C@H](O)[C@H](C)O2)Oc2ccc(cc2Cl)[C@H]1O` [vancomycin]: the “increase of S. Typhimurium colonization in fecal and cecal contents” value in test [1] (adult mice, vancomycin in drinking water, day 1 after infection, FIG. 2C) fell in the range of 4 to 5 logs. Besides, the “higher C. rodentium pathogen loads in the feces vs untreated mice” value in test [2] was roughly 6 logs. For the same compound, the “change of fecal microbiota composition” value in test [3] is “depleted the microbiota of Clostridiales and Bacteroidales and increased the abundance of Enterobacteriaceae and Lactobacillaceae”.
Turning to `CC(O)C(=O)O` (stereo not shown) [lactate], the “enhanced colonization of Clostridia of IV and XIVa clusters” value (“enhanced colonization” below) in test [4] is reported as “not”.
With `O=C(O)CCC(=O)O` [succinate], the “enhanced colonization” value in test [4] was in the range of 4 to 5 logs. In test [1] (GF mice given succinate in drinking water and Clostridia consortium by gavage, FIG. 4E, F), the “reduction of intestinal loads of S. Typhimurium ΔspiA” value is reported as roughly 100 fold.
Take `CC(=O)O` [acetate]: the “enhanced colonization” value in test [4] is recorded as “not”.

The values above are taken from patent US11883444B2, “Inhibition of enteric infection through the modulation of microbiota” (priority 2017, dated 2024).
